Assay results as given in patent US20250171484A1, “METHOD FOR PRODUCING DISACCHARIDE USING BETA-GLUCOSIDASE AND COFACTOR THEREOF AND COMPOSITION FOR INDUCING ENZYME PRODUCTION OF STRAIN OF GENUS TRICHODERMA COMPRISING PRODUCED DISACCHARIDE” (CJ CheilJedang Corporation, priority 2021, published 2025).

Tested on: β-glucosidase (SEQ ID NO: 1)
Test: Disaccharide production from glucose by beta-glucosidase with added divalent metal ion
Assay type: biochemical, Trichoderma reesei
Settings: for Concentration (g/L) Cellobiose / Concentration (g/L) Gentiobiose / Concentration (g/L) Isomaltose / Concentration (g/L) Maltose / Concentration (g/L) Sophorose / Concentration (g/L) Trehalose / Concentration (g/L) Total: 1 mM ion, 60° C.; for Concentration (g/L) Total: total equals gentiobiose + sophorose; for Increase/decrease rate (%) Gentiobiose / Increase/decrease rate (%) Sophorose / Increase/decrease rate (%) Total: versus no ion added
Method: Glucose powder with a purity of 95% or more (hydrous crystalline glucose, Daejung Chemicals & Metals) was dissolved using steam to prepare 40 kg of a glucose solution with a concentration of 71% w/w. 0.3 kg of β-glucosidase (SEQ ID NO: 1) was added at a concentration of 1,650 U/ml to the prepared glucose solution, allowed to stand at 60° C. for 7 days to 21 days to prepare a composition comprising disaccharides (Treated Glucose Syrup, TGS). 0.3 kg of β-glucosidase (same as in Example 1) was added to the glucose solution of Example 1 at a concentration of 1,650 U/ml, and 1 mM of divalent ions [manganese ion (Mn^2+), magnesium ion (Mg^2+), zinc ion (Zn^2+), and copper ion (Cu^2+) each] was further added thereto, and allowed to stand at 60° C. for 7 days to 21 days to prepare a composition containing disaccharides. In the compositions prepared in Examples 1 and 2, the production concentration (g/L) and increase/decrease rate (%) of the disaccharides, i.e. trehalose, isomaltose, maltose, cellobiose, gentiobiose, and sophorose were measured, and the results are shown in Table 1 and Table 2 below. The production concentration was analyzed using a Bio-LC system (Dionex ICS-3000, Sunnyvale, CA, United States) equipped with an electrochemical detector and a CarboPac PAI column.

SMILES | Concentration (g/L) Cellobiose (standing period 7 days) | Concentration (g/L) Gentiobiose (standing period 7 days) | Concentration (g/L) Isomaltose (standing period 7 days) | Concentration (g/L) Maltose (standing period 7 days) | Concentration (g/L) Sophorose (standing period 7 days) | Concentration (g/L) Trehalose (standing period 7 days) | Concentration (g/L) Total (standing period 7 days) | Increase/decrease rate (%) Gentiobiose (standing period 7 days) | Increase/decrease rate (%) Sophorose (standing period 7 days) | Increase/decrease rate (%) Total (standing period 7 days) | Concentration (g/L) Cellobiose (standing period 14 days) | Concentration (g/L) Gentiobiose (standing period 14 days) | Concentration (g/L) Isomaltose (standing period 14 days) | Concentration (g/L) Maltose (standing period 14 days) | Concentration (g/L) Sophorose (standing period 14 days) | Concentration (g/L) Trehalose (standing period 14 days) | Concentration (g/L) Total (standing period 14 days) | Increase/decrease rate (%) Gentiobiose (standing period 14 days) | Increase/decrease rate (%) Sophorose (standing period 14 days) | Increase/decrease rate (%) Total (standing period 14 days) | further results
[Cu+2] [Cu^2+, copper ion (Cu^2+)] | 15.1 g/L | 71.7 g/L | 8 g/L | 18.7 g/L | 13.3 g/L | 19.4 g/L | 85 g/L | 22.8% | 92.2% | 30.1% | 15.2 g/L | 82.1 g/L | 10.3 g/L | 15.9 g/L | 17 g/L | 12.6 g/L | 99.1 g/L | 16.3% | 33.5% | 18.9% | Concentration (g/L) Cellobiose (standing period 21 days): 15.5 g/L; Concentration (g/L) Gentiobiose (standing period 21 days): 92.4 g/L; Concentration (g/L) Isomaltose (standing period 21 days): 12.4 g/L; Concentration (g/L) Maltose (standing period 21 days): 16.8 g/L; Concentration (g/L) Sophorose (standing period 21 days): 24.3 g/L; Concentration (g/L) Trehalose (standing period 21 days): 13 g/L; Concentration (g/L) Total (standing period 21 days): 116.7 g/L; Increase/decrease rate (%) Gentiobiose (standing period 21 days): 11.7%; Increase/decrease rate (%) Sophorose (standing period 21 days): 53.0%; Increase/decrease rate (%) Total (standing period 21 days): 18.4%
[Mg+2] [Mg^2+, magnesium ion (Mg^2+)] | 13.1 g/L | 64.3 g/L | 6.7 g/L | 13.7 g/L | 10.8 g/L | 21.1 g/L | 75.1 g/L | 10% | 56.8% | 15% | 15.6 g/L | 69.4 g/L | 10.6 g/L | 14.6 g/L | 17.4 g/L | 15.3 g/L | 86.8 g/L | −1.6% | 36.5% | 4.2% | Concentration (g/L) Cellobiose (standing period 21 days): 15.4 g/L; Concentration (g/L) Gentiobiose (standing period 21 days): 74.6 g/L; Concentration (g/L) Isomaltose (standing period 21 days): 13.2 g/L; Concentration (g/L) Maltose (standing period 21 days): 15.4 g/L; Concentration (g/L) Sophorose (standing period 21 days): 23.1 g/L; Concentration (g/L) Trehalose (standing period 21 days): 14.8 g/L; Concentration (g/L) Total (standing period 21 days): 97.7 g/L; Increase/decrease rate (%) Gentiobiose (standing period 21 days): −9.8%; Increase/decrease rate (%) Sophorose (standing period 21 days): 45.3%; Increase/decrease rate (%) Total (standing period 21 days): −0.9%
[Mn+2] [Mn^2+, manganese ion (Mn^2+)] | 14.5 g/L | 69.5 g/L | 8.6 g/L | 16.8 g/L | 11.6 g/L | 21.7 g/L | 81.1 g/L | 18.9% | 67.8% | 24.1% | 15.4 g/L | 78 g/L | 12.4 g/L | 16.1 g/L | 16.5 g/L | 14.6 g/L | 94.5 g/L | 10.5% | 29.2% | 13.4% | Concentration (g/L) Cellobiose (standing period 21 days): 15.5 g/L; Concentration (g/L) Gentiobiose (standing period 21 days): 86.5 g/L; Concentration (g/L) Isomaltose (standing period 21 days): 15.7 g/L; Concentration (g/L) Maltose (standing period 21 days): 17.1 g/L; Concentration (g/L) Sophorose (standing period 21 days): 23.6 g/L; Concentration (g/L) Trehalose (standing period 21 days): 14.1 g/L; Concentration (g/L) Total (standing period 21 days): 110.2 g/L; Increase/decrease rate (%) Gentiobiose (standing period 21 days): 4.6%; Increase/decrease rate (%) Sophorose (standing period 21 days): 48.7%; Increase/decrease rate (%) Total (standing period 21 days): 11.7%
[Zn+2] [Zn^2+, zinc ion (Zn^2+)] | 14.8 g/L | 69.9 g/L | 7.3 g/L | 15.8 g/L | 12.6 g/L | 22.2 g/L | 82.5 g/L | 19.7% | 82.8% | 26.3% | 14.9 g/L | 81 g/L | 9.8 g/L | 14.3 g/L | 16.4 g/L | 14.3 g/L | 97.3 g/L | 14.7% | 28.4% | 16.8% | Concentration (g/L) Cellobiose (standing period 21 days): 15 g/L; Concentration (g/L) Gentiobiose (standing period 21 days): 92 g/L; Concentration (g/L) Isomaltose (standing period 21 days): 12.5 g/L; Concentration (g/L) Maltose (standing period 21 days): 15.2 g/L; Concentration (g/L) Sophorose (standing period 21 days): 23.4 g/L; Concentration (g/L) Trehalose (standing period 21 days): 14.5 g/L; Concentration (g/L) Total (standing period 21 days): 115.4 g/L; Increase/decrease rate (%) Gentiobiose (standing period 21 days): 11.3%; Increase/decrease rate (%) Sophorose (standing period 21 days): 47.1%; Increase/decrease rate (%) Total (standing period 21 days): 17%
